{BHQ1} = Black Hole Quencher-1 (BHQ-1) label; {FAM} = fluorescein (FAM) label

Common to all, as to format: biochemical
Series [1] deals with T1, IRE-1α (Homo sapiens, UniProt O75460).
T1 construct: GST (N, cleaved yes); made in house; host or cells: baculovirus-infected insect cells
Description: IRE-1α RNase activity assay, reaction products separated on denaturing gel.

The target in series [2] is T1, IRE-1α. Description: High-throughput screening assay of IRE-1α RNase activity. The conditions noted are these: for fluorescence signal, average: 384-well plates. The procedure: Five μl of a reaction mixture comprising 1× reaction buffer (5× reaction buffer is 100 mM Hepes pH 7.5, 250 mM KOAc, 2.5 mM MgCl2), 3 mM DTT, and 0.4% polyethylene glycol water were added to each well of 384 well plates. Twenty-five nanoliters of a 1 mM test compound solution were added to test wells. Three μl of a […] IRE-1α preparation were added to each test well and to positive control wells (final concentration 5.82 ng/well). Negative control wells contained only reaction mixture and test compound.
After spinning the plates at 1200 rpm for 30 seconds, 3 μl of a 63 nM wild-type IRE-1α substrate or 3 μl of a 63 nM mutant IRE-1α substrate diluted to 48 nM were added to each well of a control plate. The plates were again spun at 1200 rpm for 30 seconds. Final concentrations for the assay were: 63 nM wild-type IRE-1α substrate (or 48 nM mutant IRE-α substrate), 5.82 ng IRE-1α protein, and 2.5 μM test compound.
The plates were covered with lids and incubated for one hour at 30° C. The plates were then transferred to an ACQUEST™ microplate reader. Data was analyzed using data analysis software. The percent activity of IRE-1α was calculated using the following equation: […]
A Beckman Biomek FX robot was used to load all components of the reaction into 384-well plates in the following order: buffer with test compound, IRE-1α, and substrate into 384-well plates. Controls with substrate alone and substrate with IRE-1α were used to calibrate signal to noise ratio and variability between wells (first two left hand rows respectively, in FIG. 6). The two far right lanes in FIG. 6 contain the mutant 15 base dual-labeled substrate with and without IRE-1α as a quality control check for RNase contamination.

The target of series [3] is T1, IRE-1α. Description: Kinetics of IRE-1α-mediated substrate cleavage. The conditions noted are these: 20 nM purified IRE-1α, 63 nM substrate, 60 minute incubation, 30° C. The procedure:
Kinetics of IRE-1α-mediated substrate cleavage were measured in an assay as described above using purified active IRE-1α and the wild-type 15 base FAM-BHQ-1™-labeled substrate. The plate was incubated at 30° C. and read every 5 minutes.
These conditions result in a signal of 60,000 units, which is approximately 75% of the full 80,000 unit signal.

Series [4] deals with T1, IRE-1α. Briefly: Competition assay with 15 base wild-type dual-labeled substrate as readout. Here is the method: Increasing amounts of either unlabeled wild-type (SEQ ID NO:1) or mutant 33 base substrate (SEQ ID NO:2) were incubated in the standard reaction as described in Example 2 for 1 hour at 30° C.
X-axis, fluorescence intensity; columns of Y axis, from left to right: 1, wild-type 15 base FAM BHQ-1™ substrate, no IRE-1α, and no competitor (background signal); 2, wild-type 15 base FAM BHQ-1™ substrate, no IRE-1α (background signal) plus 50 fold molar excess of unlabeled wild-type 33 base substrate (control for possible quenching of fluorophore with excess and possible hybridizing to the longer 33 base substrate); 3, wild-type 15 base FAM BHQ-1™ substrate with IRE-1α and an equivalent amount of wild-type 33 base substrate; 4, same as 3 with 2× wild-type 33 base substrate; 5, same as 3 with 5× wild-type 33 base substrate; 6, same as 3 with 10× wild-type 33 base substrate; 7, same as 3 with 20× wild-type 33 base substrate; 8, same as 3 with 50× wild-type 33 base substrate; 9, wild-type 15 base FAM BHQ-1™ substrate no IRE-1α (background signal) plus 50 fold molar excess of unlabeled mutant 33 base substrate (control for possible quenching of fluorophore with excess and possible hybridizing to the longer 33 base substrate (essentially the same as 2); 10, wild-type 15 base FAM BHQ-1™ substrate with IRE-1α and an equivalent amount of mutant 33 base substrate; 11, same as 3 with 2×33 base mutant substrate; 12, same as 3 with 5×33 base mutant substrate; 13, same as 3 with 10×33 base mutant substrate; 14, same as 3 with 20×33 base mutant substrate; 15, same as 3 with 50×33 base mutant substrate; 16, wild-type 15 base FAM BHQ-1™ substrate with IRE-1α (positive control).

Setting [5] is: with IRE-1α added, FIG. 3 lanes 13-14.
Where [6] appears, read: with IRE-1α, no PEG, FIG. 3 lanes 3-4.
[7] abbreviates: with IRE-1α, with PEG, FIG. 3 lanes 7-8.

T1 sequence (O75460 with tags, fused parts or gaps): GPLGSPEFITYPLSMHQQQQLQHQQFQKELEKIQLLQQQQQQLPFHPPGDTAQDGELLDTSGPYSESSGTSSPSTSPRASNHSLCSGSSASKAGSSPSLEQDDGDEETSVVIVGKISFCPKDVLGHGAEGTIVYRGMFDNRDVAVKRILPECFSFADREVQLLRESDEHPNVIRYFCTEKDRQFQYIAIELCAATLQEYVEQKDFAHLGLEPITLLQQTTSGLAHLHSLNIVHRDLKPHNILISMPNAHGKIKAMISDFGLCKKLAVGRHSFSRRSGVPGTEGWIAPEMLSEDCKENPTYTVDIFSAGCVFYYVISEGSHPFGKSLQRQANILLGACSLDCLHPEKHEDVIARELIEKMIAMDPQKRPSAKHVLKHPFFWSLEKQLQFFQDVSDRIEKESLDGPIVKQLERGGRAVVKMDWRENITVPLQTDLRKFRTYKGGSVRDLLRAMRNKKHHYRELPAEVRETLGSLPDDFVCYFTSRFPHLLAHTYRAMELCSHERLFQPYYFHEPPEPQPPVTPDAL

Regarding “5′-CAGUCCCCAGCACUG-3′ (chemistry not fully specified) [15 base mutant substrate, 15 base mutant substrate with 5′ FAM and 3′ BHQ-1 moieties]”, in the series with IRE-1α [1] (setting [5]), the “signal from cleaved FAM-BHQ1 labeled substrate (gel)” value is “no signal”. The “fluorescence signal, average” value with IRE-1α [2] (substrate alone (no IRE-1α)) turned out to be 10393; with IRE-1α [2] (substrate and IRE-1α), 10516.
“5′-CAGUCCGCAGCACUG-3′ (5' {FAM}, 3' {BHQ1}, sugars by position and backbone not given here) [15 base wild-type substrate, 15 base wild-type substrate with 5′ FAM and 3′ BHQ-1 moieties]”: the “signal from cleaved FAM-BHQ1 labeled substrate (gel)” value is on record as “signal” with IRE-1α [1] (IRE-1α added diluted to 1:3, FIG. 3 lane 15) and “signal” in the series with IRE-1α [1] (setting [5]). For the same substance, the “fluorescence signal, average” value is listed as 12305 with IRE-1α [2] (substrate alone (no IRE-1α)); 50076 with IRE-1α [2] (substrate and IRE-1α). In addition, in the series with IRE-1α [2] (wild-type substrate and IRE-1α over substrate alone), the “ratio of positive control over background” value was 4.07. Further, the signal with IRE-1α [3] (10 μl reaction volume) is on record as 60,000 units. Besides, the “signal as share of the full 80,000 unit signal” value in the series with IRE-1α [3] (10 μl) is recorded as “approximately 75%”.
For “5′-GGGUCUGCUGAGUCCCCAG-CACUCAGAAGGCCC-3′ (GGGUCUGCUGAGUCCCCAGCACUCAGAAGGCCC; chemistry not given here) [33 base mutant substrate]”, the “inhibitory activity (fluorescence intensity)” value in the series with IRE-1α [4] (similar concentrations (ten-fold to 50-fold excess) of unlabeled competitor) was “no inhibitory activity”. Further, the “cleavage of substrate by IRE-1α (gel)” value with IRE-1α [1] (setting [6]) and with IRE-1α [1] (setting [7]) was “does not cut” throughout.
“5′-GGGUCUGCUGAGUCCGCAGCACUCAGAAGGCCC-3′ (chemistry not given here) [33 base wild-type substrate, 33 base wild-type stem-loop RNA substrate for IRE-1α]”: the “inhibitory activity (fluorescence intensity)” value with IRE-1α [4] (50-fold excess of unlabeled competitor, 1 hour at 30° C.) is given as “greater than 50%”. In addition, the “competition with the 15 base IRE-1α substrate, inhibition of fluorescence intensity” value with IRE-1α [4] (ten-fold molar excess of unlabeled competitor, 1 hour at 30° C.) is reported as “begins to compete”. Moreover, the “cleavage of substrate by IRE-1α (gel)” value with IRE-1α [1] (IRE-1α diluted 1:3, with PEG, FIG. 3 lane 9) is reported as “cuts”; with IRE-1α [1] (IRE-1α diluted 1:12, with PEG, FIG. 3 lane 10) it was “cuts”; in the series with IRE-1α [1] (setting [6]), “cuts”; with IRE-1α [1] (setting [7]) it was “cuts”. Further, the “digestion of 33 base stem-loop substrate by IRE-1α (lower molecular weight band)” value with IRE-1α [1] (recombinant purified human IRE-1α, FIG. 3C) is “digested”.
